The target of series [1] is T1, PHD2 enzyme (Homo sapiens, UniProt Q9GZT9).
T1 construct: purchased Active motif
As to the kind of experiment: Detection of PHD2 enzyme activity inhibition (FITC-HIF1α tracer, mP read-out). The series is classed as biochemical. On the procedure: (1) A 1×Assay buffer was prepared. […] 100 nL of 100% DMSO was added into a negative control well and a positive control well respectively. (3) An enzyme solution with 2 times final concentration was prepared with the 1×Assay buffer. (4) 5 µL of the enzyme solution with 2 times final concentration was added into a compound well and the positive control well respectively. (5) 5 µL of the 1 ×Assay buffer was added into the negative control well. (6) The 384-well plate was centrifuged at 1000 rpm for 30 seconds, oscillated and mixed evenly, and then incubated for 15 minutes. (7) A tracer solution with 2 times final concentration was prepared with the 1×Assay buffer, and 5.0 µL of the tracer solution with 2 times final concentration was added to start the reaction.

Series [2] has as its system human hepatocarcinoma cell line Hep3B. As to the kind of experiment: In-vitro erythropoietin (EPO)-inducing activity experiment (EPO ELISA, OD450). The series is classed as cell-based. Conditions: Homo sapiens, Hep3B cells, incubated 24 hours at 37°C. As for the experimental part:
In-vitro erythropoietin (EPO)-inducing activities of the compounds in Embodiments 10 to 12 were evaluated by using a human hepatocarcinoma cell line Hep3B (ATCC). Hep3B cells were cultured in an EMEM medium (Eagle's Minimum Essential Medium) at 37°C in the presence of 10% fetal bovine serum (FBS). Experimental steps were as follows: • (1) Cell preparation: the cells were inoculated in a 96-well plate, and cell plating was carried out according to an amount of 100 µL per well based on 2*10~4 per well. • (2) Preparation of compound concentration gradient: 100 µM, 20 µM, 2-parallel well detection. A solution with 200 times final concentration was prepared in a 96-well plate, the compound was diluted 200/3 times by using a cell culture medium, and then 50 µL of the compound was sucked for drug administration to the cells. 50 µL of DMSO-containing culture solution was added into a negative control well to make a final concentration contain 5 ‰ DMSO, and 50 µL of positive compound with the highest concentration was added into a positive control well to incubate the cells at 37°C for 24 hours. • (3) The reaction plate was washed twice with 1X Wash Buffer according to about 400 µL per well. • (4) 100 µL of diluted standard (comprising a standard blank control) was added into an appropriate well. • (5) 50 µL of sample and 50 µL of Sample Diluent were added into a sample well. • (6) 50 µL of 1X Biotin Conjugated Antibody were added into all wells to incubate the cells at room temperature for 1 hour. • (7) The reaction plate was washed with 1X Wash Buffer for 6 times according to about 400 µL per well. • (8) 100 µL of 1X Streptavidin-HRP was added in to each well to incubate the cells at room temperature for 15 minutes. • (9) The reaction plate was washed with 1X Wash Buffer for 6 times according to about 400 µL per well. • (10) 100 µL of TMB Substrate Solution was added into each well to incubate the cells at room temperature for 10 minutes. • (11) 100 µL of Stop Solution was added into each well. • (12) OD450 was read by EnSight.
The EPO-inducing activities of the compounds were expressed as the concentration for 50% of maximal effect (EC50).
For orientation: In an ELISA, binding on a coated surface is turned into a signal by an enzyme label.

In series [3] the test system is EPO (erythropoietin). As to the kind of experiment: Pharmacological evaluation: influence of continuous administration on EPO level. The class given is in vivo, SD rats. As for the experimental part: This experiment was intended to evaluate an influence of continuous administration of the compounds prepared in Embodiments 12, 13 and 14 on EPO (erythropoietin) in SD rats.
• Line: SD (Sprague Dawley) • Weeks of age and weight: 8 weeks, weight 200 g to 220 g • Sex: male • Animal source: Beijing Vital River Laboratory Animal Technology Co., Ltd.
• Positive drug: Enarodustat • Description: commercialized drugs approved for marketing in Japan • Specification and content: 2 mg JTZ-951(Enarodustat), 140 capsules/box
After a week of adaptive feeding, SD rats were randomly divided into 3 groups, 6 rats in each group, which were namely a blank group, a positive drug group (Enarodustat) and a group of compound in Embodiment 12. An Enarodustat tablet was crushed by a mortar, then quantitatively added with 0.5% methyl cellulose, and magnetically stirred and mixed evenly; and the compound prepared in Embodiment 12 was weighed, then quantitatively added with 0.5% methyl cellulose, and magnetically stirred and mixed evenly. […] The drug was given once a day for 14 consecutive days, and blood was taken to measure an EPO level 4 hours after the drug was given on the 14th day.

A short description of series [4]: Pharmacokinetic evaluation after intravenous injection or intragastric administration, plasma LC-MS/MS. The class given is in vivo, SD rats. Conditions: male, Sprague-Dawley, rat, plasma, male SD rats. From the text:
After the compounds were given to SD rats by intravenous injection or intragastric administration, concentrations of related compounds in plasma were detected by an LC-MS/MS method, and pharmacokinetics and absolute bioavailability of the compounds prepared in Embodiments 13 and 14 in the rats were preliminarily evaluated.
2. Line: Sprague Dawley rats, sex: male, weight: 200 g to 250 g
Pharmacokinetic characteristics of rodents after intravenous injection and oral administration of the compounds were tested by a standard scheme. In the experiment, a candidate compound was prepared into a clear solution, and given to the rats by single intravenous injection and intragastric administration. A solvent for intravenous injection was a certain proportion of N,N-dimethylacetamide (DMA) and 10% Solutol HS15 solution, and a solvent for oral administration was a certain proportion of sodium carboxymethyl cellulose (CMC) suspension. 5 minutes, 15 minutes, 30 minutes, 1 hour, 2 hours, 4 hours, 6 hours, 8 hours, 10 hours and 24 hours after drug administration, blood samples of the animals were respectively collected into K2EDTA anticoagulation tubes, which were temporarily stored on ice until centrifugation.

The mark [5] stands for this setting: test concentration from 10 µM, diluted 3 times into 10 concentrations, read-out: IC50.

Data on 13 compounds can be found in EP4578855A1, “PROLYL HYDROXYLASE INHIBITOR AND USE THEREOF” (Suzhong Pharmaceutical Group Co., Ltd., priority 2022, dated 2024).

As usually defined, the pIC50 is the IC50 on a negative log10 scale, so that one unit is a factor of ten. By pEC50 is commonly meant −log10 of the EC50, conventionally taken in molar units. Low readings indicate a high EC50, high ones a low EC50. For orientation: bioavailability means dose-corrected exposure relative to a reference, in per cent.

pEC50, pIC50: −log10 of the molar value. “And” between values parts separate entries of the source, which are not always exact repeats. Identical values can stand only once. Like-named read-outs stand apart in the source and are kept apart here.

T1 sequence (Q9GZT9 whole entry, species assumed): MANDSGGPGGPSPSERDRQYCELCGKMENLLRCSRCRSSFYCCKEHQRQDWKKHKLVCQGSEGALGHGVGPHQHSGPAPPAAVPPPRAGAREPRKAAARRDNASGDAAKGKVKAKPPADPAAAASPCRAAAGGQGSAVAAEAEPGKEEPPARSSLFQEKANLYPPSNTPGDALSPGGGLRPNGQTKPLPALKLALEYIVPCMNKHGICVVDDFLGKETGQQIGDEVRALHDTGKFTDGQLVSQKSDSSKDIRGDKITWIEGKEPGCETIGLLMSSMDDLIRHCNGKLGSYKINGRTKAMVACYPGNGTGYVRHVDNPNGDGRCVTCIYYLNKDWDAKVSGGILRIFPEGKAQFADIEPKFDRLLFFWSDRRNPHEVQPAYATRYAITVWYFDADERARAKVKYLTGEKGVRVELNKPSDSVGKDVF

For the compound `O=C(O)CNC(=O)c1c(O)cc(Oc2ccccc2)n2ncnc12` [Compound in Embodiment 1], the pIC50 in series [1] (setting [5]) is 7.70. The same measure, in the same setting: the result for `O=C(O)CNC(=O)c1c(O)cc(Oc2ccccc2Cl)n2ncnc12` [Compound in Embodiment 2, (5-(2-chlorophenoxy)-7-hydroxy-[1,2,4]triazolyl[1,5-a]pyridine-8-carbonyl)glycine] reads 7.46. As to `O=C(O)CNC(=O)c1c(O)cc(Oc2cccc(Cl)c2)n2ncnc12` [Compound in Embodiment 3, (5-(3-chlorophenoxy)-7-hydroxy-[1,2,4]triazolyl[1,5-a]pyridine-8-carbonyl)glycine], the pIC50 in series [1] (setting [5]) is 7.52. Same read-out and setting: the result for `O=C(O)CNC(=O)c1c(O)cc(Oc2ccc(Cl)cc2)n2ncnc12` [Compound in Embodiment 4, (5-(4-chlorophenoxy)-7-hydroxy-[1,2,4]triazolyl[1,5-a]pyridine-8-carbonyl)glycine] reads 7.48; that for `Cc1ccc(Oc2cc(O)c(C(=O)NCC(=O)O)c3ncnn23)cc1` [Compound in Embodiment 5, (5-(p-tolyloxy)-7-hydroxy-[1,2,4]triazolyl[1,5-a]pyridine-8-carbonyl)glycine], 7.36.

`COc1ccc(Oc2cc(O)c(C(=O)NCC(=O)O)c3ncnn23)cc1` [Compound in Embodiment 6, (5-(p-methoxyphenoxy)-7-hydroxy-[1,2,4]triazolyl[1,5-a]pyridine-8-carbonyl)glycine]: in series [1] (setting [5]), the pIC50 was 7.32. As for `O=C(O)CNC(=O)c1c(O)cc(Oc2cccc(N3CCOCC3)c2)n2ncnc12` [Compound in Embodiment 7, (5-(3-morpholinphenoxy)-7-hydroxy-[1,2,4]triazolyl[1,5-a]pyridine-8-carbonyl)glycine], the pIC50 in series [1] (setting [5]) is 7.47. As for `O=C(O)CNC(=O)c1c(O)cc(Oc2ccc(F)cc2)n2ncnc12` [Compound in Embodiment 8, (5-(4-fluorophenoxy)-7-hydroxy-[1,2,4]triazolyl[1,5-a]pyridine-8-carbonyl)glycine], the pIC50 in series [1] (setting [5]) is 7.45. The same measure, in the same setting: the result for `CCCOc1cc(O)c(C(=O)NCC(=O)O)c2ncnn12` [Compound in Embodiment 9, (5-(propoxy)-7-hydroxy-[1,2,4]triazolyl[1,5-a]pyridine-8-carbonyl)glycine] reads 7.47.

`O=C(O)CNC(=O)c1c(O)cc(C#Cc2ccccc2)n2ncnc12` [Compound in Embodiment 10, [(7-hydroxy-5-(phenylethynyl)-[1,2,4]triazolo[1,5-a]pyridine-8-carbonyl)amino]acetic acid] showed a pEC50 in series [2] (Hep3B, 24 h) of 5.19. Further, in series [1] (setting [5]), the pIC50 is 7.33. `O=C(O)CNC(=O)c1c(O)cc(C=Cc2ccccc2)n2ncnc12` [Compound in Embodiment 11, [(7-hydroxy-5-(styryl)-[1,2,4]triazolo[1,5-a]pyridine-8-carbonyl)amino]acetic acid]: the pEC50 in series [2] (Hep3B, 24 h) was 5.75. The pIC50 in series [1] (setting [5]) was 7.50. With `O=C(O)CNC(=O)c1c(O)cc(CCc2ccccc2)n2ncnc12` [Enarodustat, reference compound], the “EPO levels in serum of the rats” value in series [3] (after 14 days of administration, in words) is “increased significantly”. In addition, the “EPO level after 14 days of administration” value in series [3] (individual rats 1-6, 0.3 mg/mL, 10 mL/kg, once a day for 14 consecutive days, blood 4 hours after the drug on the 14th day, 2904.6 pg/mL was an upper limit of measurement) is 452.8 pg/mL and 396.3 pg/mL and 483.2 pg/mL and 404.5 pg/mL and 418.4 pg/mL and 442.3 pg/mL. In addition, the “EPO level after 14 days of administration, Mean” value in series [3] (mean of 6 rats, 0.3 mg/mL, 10 mL/kg, once a day for 14 consecutive days, blood 4 hours after the drug on the 14th day, 2904.6 pg/mL was an upper limit of measurement) was found to be 432.9 pg/mL. In addition, the pEC50 in series [2] is 4.82. Also, the AUC in series [4] (route and dose not given, read-out: Concentration integral AUC) is 11400 ng·h/mL. Moreover, in series [4] (route and dose not given, read-out: Half-life period T1/2 (converted)), the half-life was 1.12 h. Besides, the bioavailability in series [4] (oral, intragastric vs intravenous, read-out: Bioavailability F) amounted to 30.1%. In series [1], the pIC50 is 7.66. In series [2] (Hep3B, 24 h), `Cc1nc(C(=O)NCC(=O)O)c(O)c2ccc(Oc3ccccc3)cc12` [FG-4592, Roxadustat, reference compound] gave a pEC50 of 4.86.
